Data set [1] deals with Mus musculus. The data set is described as follows: Analgesic activity in Albino mouse assessed as inhibition of acetic acid-induced writhing at 50 mg/kg, po. The data set is classed as functional.
In data set [2] the test system is Rattus norvegicus. The experiment in a line: Antiinflammatory activity in rat at 50 mg/kg, po. The data set is classed as functional.
For data set [3], the species on record is Rattus norvegicus. The experiment in a line: Toxicity in rat assessed as ulcerogenic potential. The data set is classed as organism-based. Particulars: in vivo.

In ChEMBL document CHEMBL1146322, “Synthesis and biological evaluation of some 5-ethoxycarbonyl-6-isopropylamino-4-(substitutedphenyl)aminopyrimidines as potent analgesic and anti-inflammatory agents” (Bioorg Med Chem Lett, 2007) one finds inhibition in vivo and UI data, which are given here for eight compounds.

The term inhibition in vivo denotes the percentage by which the read-out fell short of the control. Turning to `CCOC(=O)c1c(Nc2ccc(Cl)cc2)ncnc1NC(C)C`, the values for the inhibition in vivo at 50 mg/kg in data set [1] and in data set [2] were 70.2% and 30.9%, respectively.
Regarding `CCOC(=O)c1c(Nc2ccc(S(N)(=O)=O)cc2)ncnc1NC(C)C`, the UI in data set [3] worked out at 0.241. Besides, the values for the inhibition in vivo at 50 mg/kg in data set [1] and in data set [2] were 72.6% and 87.7%, respectively.
Turning to `O=C([O-])Cc1ccccc1Nc1c(Cl)cccc1Cl.[Na+]` [DICLOFENAC SODIUM], the UI in data set [3] was found to be 0.805. In addition, the inhibition in vivo at 50 mg/kg in data set [1] is 78%.
In the case of `CCOC(=O)c1c(NC(C)C)ncnc1Oc1ccccc1`, the inhibition in vivo at 50 mg/kg in data set [1] came out at 70.2%; in data set [2] it was 55.5%.
In the case of `CCOC(=O)c1c(Nc2ccc(OC)cc2)ncnc1NC(C)C`, the inhibition in vivo at 50 mg/kg in data set [1] was 85.1%; in data set [2] it was 62.7%.
As for `CCOC(=O)c1c(Nc2ccc(C)cc2)ncnc1NC(C)C`, the UI in data set [3] stood at 0.29. Moreover, the values for the inhibition in vivo at 50 mg/kg in data set [1] and in data set [2] were 72% and 89.7%, respectively.
For `Cc1ccc(-c2cc(C(F)(F)F)nn2-c2ccc(S(N)(=O)=O)cc2)cc1` [CELECOXIB], in data set [3], the UI is 0.104. The inhibition in vivo at 50 mg/kg in data set [2] is 82.1%.
As to `CCOC(=O)c1c(Nc2ccc([N+](=O)[O-])cc2)ncnc1NC(C)C`, the values for the inhibition in vivo at 50 mg/kg in data set [1] and in data set [2] were 77.4% and 84.6%, respectively.
